{"source": "patent US20250381412A1", "about": "“METHODS AND SYSTEMS FOR NEUROMODULATION” (Cardionomix, Inc., priority 2022, published 2025)", "tested_on": "normal, non-HF ovine model", "experiment": "Heartbeat-by-heartbeat changes in right and left ventricle contractility (max dP/dt as surrogate) after an injection", "type": "in vivo", "conditions": "pressure max (dP/dt) used as surrogate for contractility, after injection (calcium: 5 mL)", "text": "The correlation was a heartbeat-by-heartbeat analysis. Pressure measurements, taken by a Millar catheter comprising a MEMS pressure sensor, in units of max (dP/dt) was used as a surrogate for contractility.\nThe first change, a dobutamine injection, provided a very high contractility increase greater than 500%. The average correlation between right ventricle contractility and left ventricle contractility was very good at 0.91, where 1.00 is a perfect correlation. Accordingly, if a subject is given a dobutamine injection, measuring changes to right ventricle contractility can provide accurate information about changes to left ventricle contractility. The first change was repeated three times.\nThe second change, calcium injection at 5 mL, provided a contractility increase of about 20%. […] The average correlation between right […] contractility and left ventricle contractility using a Millar (MEMS) sensor on a catheter was very good at 0.91. The average correlation between right ventricle contractility and left ventricle contractility using a fluid-filled lumen of a Swan-Ganz catheter in communication with an external pressure sensor was also very good at 0.87. Accordingly, under certain circumstances such as measurement of an animal (normal, non-HF ovine model) model, if a subject is given a calcium injection, measuring changes to right ventricle contractility with a MEMS sensor or a fluid filled lumen can provide accurate information about changes to left ventricle contractility.", "data": [{"compound": "[Ca+2]", "note": "[Calcium, calcium]", "values": [{"measurement": "Contractility % Increase", "value": "~20", "unit": "%"}, {"measurement": "Contractility % Increase", "setting": "listed as calcium", "value": "about 20%"}]}, {"compound": "CC(CCc1ccc(O)cc1)NCCc1ccc(O)c(O)c1", "note": "(stereo not shown) [Dobutamine Injection, dobutamine]", "values": [{"measurement": "Contractility % Increase", "value": ">500", "unit": "%"}, {"measurement": "Contractility % Increase", "setting": "listed as dobutamine", "value": "greater than 500%"}]}]}
